The values below come from patent US5389621A, “Method of enhancing the anticoagulant effects of aspirin using salicylamide” (University of Medicine and Dentistry of New Jersey, priority 1994, dated 1995).

A short description of data set [1]: Plasma kinetics of total 14C after oral 14C-salicylamide alone or with aspirin. The class given is in vivo, male Sprague-Dawley rats. Conditions: for AUC.infin. of 14C: mean ± SE, n=6. The procedure: Male adult Sprague-Dawley rats (300-325 gm) obtained from Charles River Breeding Laboratory, N. Wilmington, Mass. were quarantined for one week. All animals were identified by ear punching. Food and water were provided ad libitum. The animals were maintained on rodent lab chow diet in a controlled environment with 50% humidity and 12 hour light/dark cycle.
Two dose combinations were employed. The low dose was 10 and/or 3 mg/kg of ASA and/or SAM, respectively, while the high dose was double the low dose. These doses were approximately equal (w/w) to that in commercially available combinations, e.g., BC® formula, when administered to humans.
Rats were divided into 2 groups; the first group consisted of 30 rats which were assigned to 5 subgroups, 6 rats each, according to the following treatment scheme:
The second group consisted of 4 subgroups and were administered double the dose received by the first group (with the exception of subgroup III).
The rats were fasted overnight (~18 hr.) before administration of the treatments and were allowed water ad libitum. The drug(s) to be given were prepared fresh in the morning of the study, dissolved in 2.5 ml of deionized water and gavaged to rats. […]
The samples were collected by heparinized plastic syringes and transferred to polyethylene test tubes. The samples, ~300 μl each, were rapidly centrifuged at 1800×g for 15 minutes at 4° C.
The terminal elimination rate constant (ke) was estimated by linear regression of the terminal β phase of the plasma concentration vs. time curves. The area under the curve (AUC.infin.) was calculated by using the trapezoidal method from zero to the last measured plasma concentration. The half-life of elimination (t1/2β) was obtained by the equation t1/2β =0.693/ke.
Total body clearance (ClT) was estimated by the equation ClT =Dose/AUC assuming a complete absorption of ASA and SAM (Iwamoto et al., 1982; Iwamoto et al., 1983). The apparent volume of distribution Vd was calculated from the formula, Vd =ClT /ke.

The nature of data set [2]: Tissue distribution of 14C radioactivity after 14C-salicylamide. The class given is in vivo, male Sprague-Dawley rats. The procedure:
All animals were identified by ear punching. Food and water were provided ad libitum.
Forty-eight rats were divided into two groups.
Each group consisted of 24 rats and was further divided into 4 subgroups, 6 rats each, according to the following scheme:
The rats were fasted overnight. The drug(s) were prepared fresh, dissolved in 2.5 ml of deionized water and administered orally by gavage needle. The rats were allowed water ad libitum before and after the oral administration.
The different treatments were given according to the previous scheme and each rat received an amount of radioactivity equal to […] in the case of radioactive aspirin and 10 μCu in the case of radioactive salicylamide. For the low and high dose ASA treatments 3696 and 1848 dpm ^14 C-ASA/μg total ASA were used respectively. For SAM, 24.4 and 12.2 dpm ^14 C-SAM/ng total SAM were utilized for low and high dose treatments, respectively.
The rats were anesthetized by light diethyl ether inhalation.
The rest of the red blood cells were washed twice by adding 2 ml of physiological saline and were resuspended after each addition. The red blood cells were centrifuged at 3000 rpm (1800×g) for 10 minutes and 300 μl were pipetted in a scintillation vial for measurement of ^14 C radioactivity.
After collecting the blood sample, the rats were sacrificed immediately by a diethyl ether overdose. The following tissues were collected: liver, lung, kidney, heart, spleen, perinephric fat, brain, upper small intestine, stomach, pancreas, bone (femur and tibia), testis, skin and skeletal muscle. A sample of bone marrow was also collected (approximately20 mg).
300 mg tissue samples were placed in scintillation vials and 300 μl of 70% perchloric acid and 600 μl of 30% hydrogen peroxide were added to each vial and also to the vials containing the washed red blood cells aliquots. The vials were incubated at 75° C. for 1 hour in a shaking water bath and were tightly capped to prevent any loss of radioactivity by evaporation.
The vials were left to cool to room temperature for 15 minutes before 10 ml Aquasol-2 scintillation fluid was added to each vial. The total radioactivity was counted in a Beckman model 7500 LS spectrophotometer.

The conditions of data set [3]: cited from earlier work; for Absorption (ASA) / bioavailability (SAM) from oral solution vs solid forms: oral solutions vs tablets or suspensions.
Where [4] appears, read: oral 14C-SAM 3 mg/kg, alone or with ASA 10 mg/kg.
Where [5] appears, read: oral 14C-SAM 6 mg/kg, alone or with ASA 20 mg/kg.
The mark [6] stands for this setting: 1.5 hr, 14C-SAM 3 mg/kg, alone or with ASA 10 mg/kg.
The mark [7] stands for this setting: 1.5 hr, 14C-SAM 6 mg/kg, alone or with ASA 20 mg/kg.
Setting [8] is: ASA 20 mg/kg with 14C-SAM 6 mg/kg.

“Also recorded” adds a separate entry of the source.

With `N[14C](=O)c1ccccc1O` [^14 C-SAM], in data set [1] (setting [4]), the “C1T total body clearance of 14C” value amounted to 543.7 ± 89.5 mL/h, the “Cmax of 14C” value was determined as 1800 ± 300 ng/mL, the “T1/2β elimination half-life of 14C” value was found to be 1.1 ± 0.24 h and the “Vd apparent volume of distribution of 14C” value worked out at 975 ± 152 mL. The “AUC.infin. of 14C” value in data set [1] (setting [4]) was found to be 1.9 ± 0.4 μ · hr/ml. Moreover, in data set [1] (setting [5]), the “C1T total body clearance of 14C” value is 501.1 ± 64.9 mL/h, the “Cmax of 14C” value came to 3700 ± 500 ng/mL, the “T1/2β elimination half-life of 14C” value is 1.1 ± 0.1 h and the “Vd apparent volume of distribution of 14C” value came to 824 ± 156 mL. Moreover, the “AUC.infin. of 14C” value in data set [1] (setting [5]) is 3.9 ± 0.5 μ · hr/ml. Besides, in data set [2] (14C-SAM alone or with ASA, low or high dose), the “Organs with the highest 14C concentration” value is listed as “kidney followed by the stomach”. For the same compound, in data set [2] (setting [6]), the “14C radioactivity in RBCs” value was 103 ± 9 ngm/gm tissu, the “14C radioactivity in blood” value worked out at 146 ± 20 ngm/gm tissu, the “14C radioactivity in bone” value is 60 ± 7 ngm/gm tissu and the “14C radioactivity in bone marrow” value is given as 14 ± 2 ngm/50 mg bone marrow. In addition, in data set [2] (setting [6]), the “14C radioactivity in brain” value was 27 ± 5 ngm/gm tissu, the “14C radioactivity in fat” value is recorded as 41 ± 8 ngm/gm tissu, the “14C radioactivity in heart” value was 44 ± 5 ngm/gm tissu and the “14C radioactivity in kidney” value was determined as 665 ± 152 ngm/gm tissu. In data set [2] (setting [6]), the “14C radioactivity in liver” value came to 100 ± 12 ngm/gm tissu, the “14C radioactivity in lung” value was found to be 91 ± 11 ngm/gm tissu, the “14C radioactivity in muscle” value is listed as 56 ± 7 ngm/gm tissu and the “14C radioactivity in pancreas” value turned out to be 93 ± 9 ngm/gm tissu. In data set [2] (setting [6]), the “14C radioactivity in plasma” value turned out to be 147 ± 24 ngm/gm tissu, the “14C radioactivity in skin” value is 107 ± 10 ngm/gm tissu, the “14C radioactivity in spleen” value was determined as 83 ± 20 ngm/gm tissu and the “14C radioactivity in stomach” value was determined as 550 ± 154 ngm/gm tissu. Moreover, in data set [2] (setting [6]), the “14C radioactivity in testis (printed TESUIS)” value is 63 ± 7 ngm/gm tissu, the “14C radioactivity in upper small intestine” value is recorded as 130 ± 27 ngm/gm tissu and the “14C radioactivity in washed RBCs” value is given as 77 ± 10 ngm/gm tissu. In data set [2] (setting [7]), the “14C radioactivity in RBCs” value came out at 118 ± 22 ngm/gm tissu, the “14C radioactivity in blood” value worked out at 198 ± 32 ngm/gm tissu, the “14C radioactivity in bone” value came to 153 ± 38 ngm/gm tissu and the “14C radioactivity in bone marrow” value amounted to 29 ± 17 ngm/50 mg bone marrow. Moreover, in data set [2] (setting [7]), the “14C radioactivity in brain” value is recorded as 33 ± 1 ngm/gm tissu, the “14C radioactivity in fat” value turned out to be 130 ± 14 ngm/gm tissu, the “14C radioactivity in heart” value is 106 ± 10 ngm/gm tissu and the “14C radioactivity in kidney” value worked out at 1358 ± 441 ngm/gm tissu. Moreover, in data set [2] (setting [7]), the “14C radioactivity in liver” value was found to be 136 ± 12 ngm/gm tissu, the “14C radioactivity in lung” value was 218 ± 12 ngm/gm tissu, the “14C radioactivity in muscle” value is listed as 78 ± 3 ngm/gm tissu and the “14C radioactivity in pancreas” value is 147 ± 9 ngm/gm tissu. Besides, in data set [2] (setting [7]), the “14C radioactivity in plasma” value came out at 237 ± 49 ngm/gm tissu, the “14C radioactivity in skin” value was determined as 240 ± 11 ngm/gm tissu, the “14C radioactivity in spleen” value was determined as 200 ± 26 ngm/gm tissu and the “14C radioactivity in stomach” value worked out at 832 ± 217 ngm/gm tissu. Further, in data set [2] (setting [7]), the “14C radioactivity in testis” value came out at 155 ± 17 ngm/gm tissu, the “14C radioactivity in upper small intestine” value amounted to 268 ± 34 ngm/gm tissu and the “14C radioactivity in washed RBCs” value is on record as 92 ± 12 ngm/gm tissu.

In the case of `NC(=O)c1ccccc1O` [SAM, Salicylamide], in data set [3], the “Absorption (ASA) / bioavailability (SAM) from oral solution vs solid forms” value is “superior”.

On to `CC(=O)Oc1ccccc1C(=O)O` [ASA, acetylsalicylic acid], for which, in data set [1] (setting [8]), the “Effect of ASA on AUC.infin. of 14C after 14C-SAM” value is “significantly increased” and the “Effect of ASA on elimination half-life of 14C after 14C-SAM” value is reported as “significantly increased”. Also, the “Effect of ASA on SAM kinetics” value in data set [1] (ASA low dose 10 mg/kg) is given as “did not significantly effect SAM kinetics”. For the same compound, in data set [1] (low and high dose combinations), the “Effect of ASA on total body clearance of SAM” value is listed as “tended to decrease”. The “Change of tissue 14C in RBCs, bone, fat, skin, muscle, heart and others” value in data set [2] (14C-SAM/ASA 3/10 mg/kg vs 14C-SAM alone) is “enhanced the tissue concentration; also recorded: significant elevation”. Moreover, the “Change of tissue 14C, high dose” value in data set [2] (14C-SAM/ASA high dose vs 14C-SAM alone, liver, lung, RBCs, and muscle or heart) is “significantly augmented”. The “Apparent volume of distribution” value in data set [3] (children) was 0.12 to 0.14 L/kg. Besides, the “Fraction reaching the peripheral circulation intact” value in data set [3] (oral aspirin, man) is listed as “about 68%”. Moreover, the “Time of peak plasma concentration” value in data set [3] (oral soluble aspirin preparation, humans) was 15 to 25 min. The “Absorption (ASA) / bioavailability (SAM) from oral solution vs solid forms” value in data set [3] is given as “superior”. In data set [3] (oral, stomach and upper small intestine), the “Absorption” value is “rapidly and usually completely absorbed”.
